In patent US10273263B2, “Pro-drug forming compounds” (priority 2013, dated 2019):
Like-named read-outs stand apart in the source and are kept apart here.

Experiments:
[1] = oral biological activity: % uterine weight increase compared to vehicle; format: in vivo, rat; settings: for change in vivo at 0.01 mg / change in vivo at 0.03 mg: Rattus norvegicus, oral; for change in vivo at 0.01 mg: 10.0 μg; for change in vivo at 0.03 mg: 30.0 μg
Description: Exemplary compounds were tested for: oral biological activity (Table 1); binding to human carbonic anhydrase II (hCA 2) (Table 2); and, for some compounds enzymatic saponification (Table 3).

[2] = biological target: human carbonic anhydrase II (hCA 2) (Homo sapiens, UniProt P00918); test: Human Carbonic Anhydrase II inhibition; format: biochemical

Row | Structure (SMILES) | change in vivo at 0.01 mg [1] [%] | IC50 [2] [nM] | IC50 ([2]; read-out: hCAII (IC50 nM)) [nM] | change in vivo at 0.03 mg [1] [%] | oral activity ([1]; oral dose, comparison in words)
1 | CC(C)(NC(=O)c1ccc(S(N)(=O)=O)cc1)C(=O)O[C@H]1CCC2C3CCc4cc(O)ccc4C3CC[C@@]21C (stereo partly drawn) [Compound 20A, [(13S,17S)-3-hydroxy-13-methyl-6,7,8,9,11,12,14,15,16,17-decahydrocyclopenta[a]phenanthren-17-yl] 2-methyl-2-[(4-sulfamoylbenzoyl)amino]propanoate] | 97.1 | 232 | – | – | –
2 | C[C@H](NC(=O)c1cccc(S(N)(=O)=O)c1)C(=O)O[C@H]1CCC2C3CCc4cc(O)ccc4C3CC[C@@]21C (stereo partly drawn) [Compound 11A, (2S)-((13S,17S)-3-hydroxy-13-methyl-7,8,9,11,12,13,14,15,16,17-decahydro-6H-cyclopenta[a]-phenanthren-17-yl) 2-(3-sulfamoylbenzamido)propanoate] | 170 | – | 310 | – | –
3 | C[C@]12CCC3c4ccc(O)cc4CCC3C1CC[C@@H]2OC(=O)C1(S(N)(=O)=O)CC1 (stereo partly drawn) [Compound 16A, (13S,17S)-3-hydroxy-13-methyl-7,8,9,11,12,13,14,15,16,17-decahydro-6H-cyclopenta[a]phenanthren-17-yl 1-sulfamoylcyclopropanecarboxylate] | – | – | > 10000 | 314 | comparable high oral activity
4 | C[C@]12CCC3c4ccc(O)cc4CCC3C1CC[C@@H]2OC(=O)COC(=O)c1ccc(S(N)(=O)=O)cc1 (stereo partly drawn) [Compound 3A, 2-((13S,17S)-3-hydroxy-13-methyl-7,8,9,11,12,13,14,15,16,17-decahydro-6H-cyclopenta[a]phenanthren-17-yloxy)-2-oxoethyl 4-sulfamoylbenzoate] | – | – | 250 | 197 | –
5 | C#C[C@]1(O)CC[C@H]2[C@@H]3CCc4cc(O)ccc4[C@H]3CC[C@@]21C [EE, ethinyl estradiol, reference compound] | 154 | – | – | – | –
6 | C[C@H](NC(=O)c1ccc(S(N)(=O)=O)cc1)C(=O)O[C@H]1CCC2C3CCc4cc(O)ccc4C3CC[C@@]21C (stereo partly drawn) [Compound 12A, (2S)-((13S,17S)-3-hydroxy-13-methyl-7,8,9,11,12,13,14,15,16,17-decahydro-6H-cyclopenta[a]-phenanthren-17-yl) 2-(4-sulfamoylbenzamido)propanoate] | – | 250 | – | 271 | –
7 | C[C@]12CCC3c4ccc(O)cc4CCC3C1CC[C@@H]2OC(=O)[C@@H]1CCCN1c1ccc(S(N)(=O)=O)cc1 (stereo partly drawn) [Compound 22A, [(13S,17S)-3-hydroxy-13-methyl-6,7,8,9,11,12,14,15,16,17-decahydrocyclopenta[a]phenanthren-17-yl] 1-(4-sulfamoylphenyl)pyrrolidine-2-carboxylate] | 91.6 | – | 198 | – | –
8 | CC(C)[C@H](NC(=O)c1ccc(S(N)(=O)=O)cc1)C(=O)O[C@H]1CCC2C3CCc4cc(O)ccc4C3CC[C@@]21C (stereo partly drawn) [Compound 19A, [(13S,17S)-3-hydroxy-13-methyl-6,7,8,9,11,12,14,15,16,17-decahydrocyclopenta[a]phenanthren-17-yl] (2S)-3-methyl-2-[(4-sulfamoylbenzoyl)amino]butanoate] | 267 | – | 202 | – | –
9 | C[C@]12CCC3c4ccc(O)cc4CCC3C1CC[C@@H]2OC(=O)CS(N)(=O)=O (stereo partly drawn) [Compound 10A, (13S,17S)-3-hydroxy-13-methyl-7,8,9,11,12,13,14,15,16,17-decahydro-6H-cyclopenta[a]phenanthren-17-yl 2-sulfamoylacetate] | 177 | – | 510 | – | –
10 | C[C@]12CCC3c4ccc(O)cc4CCC3C1CC[C@@H]2OC(=O)/C=C/C(=O)NCc1ccc(S(N)(=O)=O)cc1 (stereo partly shown) [Compound 4A] | – | – | 450 | 164 | –
11 | C[C@@H](C(=O)O[C@H]1CCC2C3CCc4cc(O)ccc4C3CC[C@@]21C)N(C)C(=O)c1ccc(S(N)(=O)=O)cc1 (stereo partly drawn) [Compound 18A, [(13S,17S)-3-hydroxy-13-methyl-6,7,8,9,11,12,14,15,16,17-decahydrocyclopenta[a]phenanthren-17-yl](2S)-2-[methyl-(4-sulfamoylbenzoyl)amino]propanoate] | 209 | 203 | – | – | –
12 | C[C@]12CCC3c4ccc(O)cc4CCC3C1CC[C@@H]2OC(=O)CN(Cc1cccc(S(N)(=O)=O)c1)Cc1cccc(S(N)(=O)=O)c1 (stereo partly drawn) [Compound 13A, (13S,17S)-3-hydroxy-13-methyl-7,8,9,11,12,13,14,15,16,17-decahydro-6H-cyclopenta[a]phenanthren-17-yl 2-(bis(3-sulfamoylbenzyl)amino)acetate] | – | – | 500 | 136 | –
13 | C[C@]12CCC3c4ccc(O)cc4CCC3C1CC[C@@H]2OC(=O)COCc1ccc(S(N)(=O)=O)cc1 (stereo partly drawn) [Compound 17A, (13S,17S)-3-hydroxy-13-methyl-7,8,9,11,12,13,14,15,16,17-decahydro-6H-cyclopenta[a]phenanthren-17-yl 2-(4-sulfamoylbenzyloxy)acetate] | – | – | 125 | 133 | –
14 | C[C@]12CCC3c4ccc(O)cc4CCC3C1CC[C@@H]2OC(=O)COc1ccc(S(N)(=O)=O)cc1 (stereo partly drawn) [Compound 15A, (13S,17S)-3-hydroxy-13-methyl-7,8,9,11,12,13,14,15,16,17-decahydro-6H-cyclopenta[a]phenanthren-17-yl 2-(4-sulfamoylphenoxy)acetate] | – | – | 105 | 152 | –
15 | C[C@]12CCC3c4ccc(O)cc4CCC3C1CC[C@@H]2OC(=O)[C@@H]1CCCN1C(=O)c1cccc(S(N)(=O)=O)c1 (stereo partly drawn) [Compound 7A, (2S)-((13S,17S)-3-hydroxy-13-methyl-7,8,9,11,12,13,14,15,16,17-decahydro-6H-cyclopenta[a]-phenanthren-17-yl) 1-(3-sulfamoylbenzoyl)pyrrolidine-2-carboxylate] | 108 | – | 300 | – | –
16 | C[C@]12CCC3c4ccc(O)cc4CCC3C1CC[C@@H]2OC(=O)COC(=O)c1cccc(S(N)(=O)=O)c1 (stereo partly drawn) [Compound 2A, 2-((13S,17S)-3-hydroxy-13-methyl-7,8,9,11,12,13,14,15,16,17-decahydro-6H-cyclopenta[a]phenanthren-17-yloxy)-2-oxoethyl 3-sulfamoylbenzoate] | – | – | 3500 | – | –
17 | C[C@]12CCC3c4ccc(O)cc4CCC3C1CC[C@@H]2OC(=O)CNC(=O)c1ccc(S(N)(=O)=O)cc1 (stereo partly drawn) [Compound 6A, (13S,17S)-3-hydroxy-13-methyl-7,8,9,11,12,13,14,15,16,17-decahydro-6H-cyclopenta[a]phenanthren-17-yl 2-(4-sulfamoylbenzamido)acetate] | 152 | – | 65 | – | –
18 | C[C@]12CCC3c4ccc(O)cc4CCC3C1CC[C@@H]2OC(=O)c1cccc(S(N)(=O)=O)c1 (stereo partly drawn) [Compound 1A, (13S, 17S)-3-hydroxy-13-methyl-7,8,9,11,12,13,14,15,16,17-decahydro-6H-cyclopenta[a]phenanthren-17-yl 3-sulfamoylbenzoate, reference compound] | – | – | 258 | 212 | –
19 | C[C@]12CCC3c4ccc(O)cc4CCC3C1CC[C@@H]2OC(=O)[C@@H]1CCCN1Cc1ccc(S(N)(=O)=O)cc1 (stereo partly drawn) [Compound 23A, [(13S,17S)-3-hydroxy-13-methyl-6,7,8,9,11,12,14,15,16,17-decahydrocyclopenta[a]phenanthren-17-yl] 1-[(4-sulfamoylphenyl)methyl]pyrrolidine-2-carboxylate] | 272 | – | 129 | – | –
20 | C[C@]12CC[C@@H]3c4ccc(O)cc4CC[C@H]3[C@@H]1CC[C@@H]2O [Compound E2, estradiol, reference compound] | 118 | – | – | – | –
21 | C[C@]12CCC3c4ccc(O)cc4CCC3C1CC[C@@H]2OC(=O)[C@H](Cc1ccccc1)NC(=O)c1ccc(S(N)(=O)=O)cc1 (stereo partly drawn) [Compound 21A, [(13S,17S)-3-hydroxy-13-methyl-6,7,8,9,11,12,14,15,16,17-decahydrocyclopenta[a]phenanthren-17-yl] (2S)-3-phenyl-2-[(4-sulfamoylbenzoyl)amino]propanoate] | 117 | – | 100 | – | –
22 | C[C@]12CCC3c4ccc(O)cc4CCC3C1CC[C@@H]2OC(=O)CNCc1cccc(S(N)(=O)=O)c1 (stereo partly drawn) [Compound 14A, (13S,17S)-3-hydroxy-13-methyl-7,8,9,11,12,13,14,15,16,17-decahydro-6H-cyclopenta[a]phenanthren-17-yl 2-(3-sulfamoylbenzylamino)acetate] | – | – | 450 | 187 | –
23 | C[C@]12CCC3c4ccc(O)cc4CCC3C1CC[C@@H]2OC(=O)CNC(=O)c1cccc(S(N)(=O)=O)c1 (stereo partly drawn) [Compound 5A, (13S,17S)-3-hydroxy-13-methyl-7,8,9,11,12,13,14,15,16,17-decahydro-6H-cyclopenta[a]phenanthren-17-yl 2-(3-sulfamoylbenzamido)-acetate] | – | – | 42 | 171 | –
24 | C[C@]12CCC3c4ccc(O)cc4CCC3C1CC[C@@H]2OC(=O)C(F)(F)S(N)(=O)=O (stereo partly drawn) [Compound 9A, (13S,17S)-3-hydroxy-13-methyl-7,8,9,11,12,13,14,15,16,17-decahydro-6H-cyclopenta[a]phenanthren-17-yl 2,2-difluoro-2-sulfamoylacetate] | 218 | – | 85 | – | –
